Experimental data from patent publication US8394825B2, “Compound” (Sterix Limited, priority 2007, dated 2013).

tested on: DU145 cells; assay: Antiproliferative assay in DU145 cells, WST-1 cell proliferation assay, 96 hours (GI50); type: cell-based; conditions: 96 hours post-treatment, 50% growth inhibition, read-out: DU-145 GI50
Experimental: Antiproliferative assays. DU145 cells were seeded into 96 well microtiter plates (5000 cells/well) and treated with […] of compounds or with vehicle control. At 96 hours post-treatment, live cell counts were determined by WST-1 cell proliferation assay (Roche, Penzberg, Germany), as per manufacturer's instructions. Viability results were expressed as a percentage of mean control values resulting in the calculation of the 50% growth inhibition (GI50). All experiments were performed in triplicate.

GI50 [µM] | Compound
< 10 | COc1cccc(CN2Cc3cc(OC)c(OS(N)(=O)=O)cc3CC2C)c1 (centres unmarked) [compound 220, 2-(3-Methoxybenzyl)-1,2,3,4-tetrahydro-7-methoxy-3-methylisoquinolin-6-O-sulfamate]
< 10 | COc1cc(CN2Cc3cc(OC)c(OS(N)(=O)=O)cc3CC2C)cc(OC)c1 (centres unmarked) [compound 221, 2-(3,5-dimethoxy-benzyl)-7-methoxy-3-methyl-1,2,3,4-tetrahydro-isoquinolin-6-O-sulfamate]
< 10 | COc1cc2c(cc1OS(N)(=O)=O)CC(C)N(Cc1cc(OC)c(OC)c(OC)c1)C2 (centres unmarked) [compound 222, 2-(3,4,5-Trimethoxybenzyl)-1,2,3,4-tetrahydro-7-methoxy-3-methylisoquinolin-6-O-sulfamate]
> 100 | COc1cc2c(cc1OS(N)(=O)=O)CCN(S(=O)(=O)c1cccc(Cl)c1)C2=O [compound 207, 2-(3-Chloro-benzenesulfonyl)-7-methoxy-6-O-sulfamoyl-3,4-dihydro-2H-isoquinolin-1-one]

same assay, conditions: 96 hours post-treatment, triplicate, read-out: DU-145 GI50

Compound | GI50 [µM]
COc1cc2c(cc1OS(N)(=O)=O)CCN(Cc1cccc(O)c1)C2 [compound 97, 2-(3-Hydroxybenzyl)-7-methoxy-6-O-sulfamoyl-1,2,3,4-tetrahydroisoquinoline] | 50 to 100
COc1cc2c(cc1OS(N)(=O)=O)CCN(Cc1cc(OC)c(OC)c(OC)c1)C2 [compound 90, 7-Methoxy-2-(3,4,5-trimethoxybenzyl)-6-O-sulfamoyl-1,2,3,4-tetrahydroisoquinoline] | < 10
COc1ccc(C(=O)N2CCc3cc(OS(N)(=O)=O)c(OC)cc3C2)cc1 [compound 124, 7-Methoxy-2-(4-methoxybenzoyl)-6-O-sulfamoyl-1,2,3,4-tetrahydroisoquinoline] | < 10
COc1ccc(OC)c(CN2CCc3cc(OS(N)(=O)=O)c(OC)cc3C2)c1 [compound 94, 7-Methoxy-2-(2,5-dimethoxybenzyl)-6-O-sulfamoyl-1,2,3,4-tetrahydroisoquinoline] | < 10
COc1cc2c(cc1OS(N)(=O)=O)CCN(Cc1cccc(C(C)=O)c1)C2 [compound 82, 2-(3-Acetylbenzyl)-7-methoxy-6-O-sulfamoyl-1,2,3,4-tetrahydroisoquinoline] | < 10
COc1cc2c(cc1OS(N)(=O)=O)CCN(C(=O)c1ccccc1OC)C2 [compound 122, 7-Methoxy-2-(2-methoxybenzoyl)-6-O-sulfamoyl-1,2,3,4-tetrahydroisoquinoline] | 10 to 50
CCOc1cccc(CN2CCc3cc(OS(N)(=O)=O)c(OC)cc3C2)c1 [compound 80, 2-(3-Ethoxybenzyl)-7-methoxy-6-O-sulfamoyl-1,2,3,4-tetrahydroisoquinoline] | < 10
COc1cc2c(cc1OS(N)(=O)=O)CCN(Cc1cccc(Cl)c1)C2 [compound 101, 2-(3-Chlorobenzyl)-7-methoxy-6-O-sulfamoyl-1,2,3,4-tetrahydroisoquinoline] | < 10
COc1cccc(C(=O)N2CCc3cc(OS(N)(=O)=O)c(OC)cc3C2)c1 [compound 123, 7-Methoxy-2-(3-methoxybenzoyl)-6-O-sulfamoyl-1,2,3,4-tetrahydroisoquinoline] | < 10
COc1cc(OC)c(OC)cc1CN1CCc2cc(OS(N)(=O)=O)c(OC)cc2C1 [compound 95, 7-Methoxy-2-(2,4,5-trimethoxybenzyl)-6-O-sulfamoyl-1,2,3,4-tetrahydroisoquinoline] | < 10
COc1ccc(CN2CCc3cc(OS(N)(=O)=O)c(OC)cc3C2)cc1OC [compound 92, 7-Methoxy-2-(3,4-dimethoxybenzyl)-6-O-sulfamoyl-1,2,3,4-tetrahydroisoquinoline] | < 10
COc1cc2c(cc1OS(N)(=O)=O)CCN(Cc1cccc(OC(C)=O)c1)C2 [compound 87, 2-(3-Acetoxybenzyl)-7-methoxy-6-O-sulfamoyl-1,2,3,4-tetrahydroisoquinoline] | 50 to 100
COc1cc2c(cc1OS(N)(=O)=O)CCN(Cc1ccc(C#N)cc1)C2 [compound 99, 2-(4-Cyanobenzyl)-7-methoxy-6-O-sulfamoyl-1,2,3,4-tetrahydroisoquinoline] | 50 to 100
COc1cc2c(cc1OS(N)(=O)=O)CCN(Cc1cccc([N+](=O)[O-])c1)C2 [compound 100, 7-Methoxy-2-(3-nitrobenzyl)-6-O-sulfamoyl-1,2,3,4-tetrahydroisoquinoline] | < 10
COc1cc2c(cc1OS(N)(=O)=O)CCN(Cc1ccc(OC)c(OC)c1OC)C2 [compound 93, 7-Methoxy-2-(2,3,4-trimethoxybenzyl)-6-O-sulfamoyl-1,2,3,4-tetrahydroisoquinoline] | 10 to 50
COc1cc2c(cc1OS(N)(=O)=O)CCN(Cc1ccccc1)C2 [compound 74, 2-Benzyl-7-methoxy-6-O-sulfamoyl-1,2,3,4-tetrahydroisoquinoline] | 50 to 100
COc1cc2c(cc1OS(N)(=O)=O)CCN(Cc1cccc(OC)c1OC)C2 [compound 91, 7-Methoxy-2-(2,3-dimethoxybenzyl)-6-O-sulfamoyl-1,2,3,4-tetrahydroisoquinoline] | < 10

Now from value to compound:

GI50 [µM] | Compound
< 10 | COc1cc(OC)cc(C(=O)N2CCc3cc(OS(N)(=O)=O)c(OC)cc3C2=O)c1 [compound 150, 2-(3,5-Dimethoxybenzoyl)-7-methoxy-6-O-sulfamoyl-3,4-dihydro-2H-isoquinolin-1-one]
> 100 | COc1ccccc1CN1CCc2cc(OS(N)(=O)=O)c(OC)cc2C1 [compound 165, 7-Methoxy-2-(2-methoxybenzyl)-6-O-sulfamoyl-3,4-dihydro-2H-isoquinoline]
< 10 | COc1cccc(C(=O)N2CCc3cc(OS(N)(=O)=O)c(OC)cc3C2=O)c1 [compound 149, 7-Methoxy-2-(3-methoxybenzoyl)-6-O-sulfamoyl-3,4-dihydro-2H-isoquinolin-1-one]
> 100 | COc1cc2c(cc1OS(N)(=O)=O)CCN(S(=O)(=O)c1cccc(C#N)c1)C2 [compound 187, 2-(3-Cyano-benzenesulfonyl)-7-methoxy-6-O-sulfamoyl-1,2,3,4-tetrahydroisoquinoline]
> 100 | COc1cc2c(cc1OS(N)(=O)=O)CCN(Cc1cc(OC)c(OC)c(OC)c1)C2=O [compound 168, 7-methoxy-6-O-sulfamoyl-2-(3,4,5-trimethoxybenzyl)-3,4-dihydroisoquinolin-1 (2H)-one]
> 100 | COc1ccc(CN2CCc3cc(OS(N)(=O)=O)c(OC)cc3C2)cc1 [compound 164, 7-Methoxy-2-(4-methoxybenzyl)-6-O-sulfamoyl-3,4-dihydro-2H-isoquinoline]
< 10 | COc1ccc(C(=O)N2CCc3cc(OS(N)(=O)=O)c(OC)cc3C2=O)cc1OC [compound 151, 2-(3,4-Dimethoxybenzoyl)-7-methoxy-6-O-sulfamoyl-3,4-dihydro-2H-isoquinolin-1-one]
> 100 | COc1cc(CN2CCc3cc(OS(N)(=O)=O)c(OC)cc3C2=O)cc(OC)c1 [compound 167, 2-(3,5-Dimethoxybenzyl)-7-methoxy-6-O-sulfamoyl-3,4-dihydro-2H-isoquinolin-1-one]
> 100 | COc1ccc(C(=O)N2CCc3cc(OS(N)(=O)=O)c(OC)cc3C2=O)cc1 [compound 147, 2-(4-Methoxybenzoyl)-7-methoxy-6-O-sulfamoyl-3,4-dihydro-2H-isoquinolin-1-one]
< 10 | COc1cc2c(cc1OS(N)(=O)=O)CCN(C(=O)c1ccccc1OC)C2=O [compound 148, 7-Methoxy-2-(2-methoxybenzoyl)-6-O-sulfamoyl-3,4-dihydro-2H-isoquinolin-1-one]
10 to 50 | COc1cc2c(cc1OS(N)(=O)=O)CCN(C(=O)c1cccc(C#N)c1)C2=O [compound 153, 2-(3-Cyanobenzoyl)-7-methoxy-6-O-sulfamoyl-3,4-dihydro-2H-isoquinoline-1-one]
> 100 | COc1cc2c(cc1OS(N)(=O)=O)CCN(S(=O)(=O)c1ccccc1OC)C2 [compound 194, 7-Methoxy-2-(2-methoxy-benzenesulfonyl)-6-O-sulfamoyl-1,2,3,4-tetrahydroisoquinoline]
> 100 | COc1cccc(CN2CCc3cc(OS(N)(=O)=O)c(OC)cc3C2)c1 [compound 166, 7-Methoxy-2-(3-methoxybenzyl)-6-O-sulfamoyl-3,4-dihydro-2H-isoquinoline]

same assay, conditions: Homo sapiens, DU-145, 96 hours post-treatment, 50% growth inhibition

GI50 [µM] | Compound
> 100 | COc1cccc(CN2Cc3cc(OC)c(OS(N)(=O)=O)cc3CC2(C)C)c1 [compound 230, 2-(3-Methoxybenzyl)-1,2,3,4-tetrahydro-7-methoxy-3,3-dimethylisoquinolin-6-yl sulfamate]

same assay, conditions: Homo sapiens, DU-145, 96 hours post-treatment, triplicate

Compound | GI50 [µM]
COc1ccc(CN2CCc3cc(O[Si](C(C)C)(C(C)C)C(C)C)c(OC)cc3C2=O)cc1 [compound 154, 7-Methoxy-2-(4-methoxybenzyl)-6-(triisopropylsilyloxy)-3,4-dihydro-2H-isoquinolin-1-one] | > 100
COc1ccc(C(=O)N2CCc3cc(OCc4ccccc4)ccc3C2)cc1OC [compound 109, 6-Benzyloxy-2-(3,4-Dimethoxybenzoyl)-1,2,3,4-tetrahydroisoquinoline] | 10 to 50
COc1cc2c(cc1O[Si](C(C)C)(C(C)C)C(C)C)CCN(S(=O)(=O)c1cccc(C#N)c1)C2 [compound 174, 2-(3-Cyano-benzenesulfonyl)-6-triisopropylsilyloxy-7-methoxy-1,2,3,4-tetrahydroisoquinoline] | > 100
COc1cc2c(cc1O)CCN(Cc1cccc(C)c1)C2 [compound 44, 6-Hydroxy-7-methoxy-2-(3-methylbenzyl)-1,2,3,4-tetrahydroisoquinoline] | > 100

The next lines start with the values.

GI50 [µM] | Compound
> 100 | COc1cc2c(cc1OCc1ccccc1)CCN(C(=O)c1ccc(C#N)cc1)C2=O [compound 136, 6-(Benzyloxy)-2-(4-cyanobenzoyl)-7-methoxy-3,4-dihydro-2H-isoquinoline-1-one]
> 100 | COc1cc2c(cc1OCc1ccccc1)CCN(S(=O)(=O)c1cccc(Cl)c1)C2 [compound 173, 6-Benzyloxy-2-(3-chloro-benzenesulfonyl)-7-methoxy-1,2,3,4-tetrahydroisoquinoline]
